Reference: patent US10828301B2, “2,4-pyrimidinediamine compounds and their uses” (Rigel Pharmaceuticals, Inc, priority 2002, dated 2020)

Key:
[1] = target: FcγRI receptor-mediated degranulation; assay: FcγRI-mediated degranulation (activation with anti-human IgG Fab fragment); settings: cells not primed with IgE, activated with rabbit anti-human IgG Fab fragment
[2] = system: ionophore-induced degranulation of mast and/or basophil cells; assay: Ionophore (ionomycin or A23187)-induced degranulation counter screen; assay type: cell-based; settings: Mus musculus; high density BMMC, ionomycin activation, hexosaminidase release; read-out: BMMC Ionomycin Hexos. IC50
Excerpt: In addition to the FcεRI or FcγRI degranulation pathways discussed above, degranulation of mast and/or basophil cells can be induced by other agents. For example, ionomycin, a calcium ionophore that bypasses the early FcεRI or FcγRI signal transduction machinery of the cell, directly induces a calcium flux that triggers degranulation. Referring again to FIG. 2, activated PLCγ initiates pathways that lead to, among other things, calcium ion mobilization and subsequent degranulation. As illustrated, this Ca^2+ mobilization is triggered late in the FcεRI signal transduction pathway. […] Other ionophores that induce degranulation in this manner include A23187. The ability of granulation-inducing ionophores such as ionomycin to bypass the early stages of the FcεRI and/or FcγRI signaling cascades may be used as a counter screen to identify active compounds of the invention that specifically exert their degranulation-inhibitory activity by blocking or inhibiting the early FcεRI or FcγRI signaling cascades, as discussed above.
Assays suitable for determining the IC50 of ionophore-induced degranulation include any of the previously-described degranulation assays, with the modification that the cells are stimulated or activated with a degranulation-inducing calcium ionophore such as ionomycin or A23187 (A.G. Scientific, San Diego, Calif.) instead of anti-IgE antibodies or an IgE-specific allergen. Specific assays for assessing the ability of a particular 2,4-pyrimidinediamine compound of the invention to inhibit ionophore-induced degranulation are provided in the Examples section.

[3] = system: cultured human mast cells (CHMC); assay: CHMC low cell density IgE activation: tryptase and LTC4 assays; assay type: cell-based; settings: Homo sapiens, Mast cell, Low Density CHMC, anti-IgE activation
How it was run: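 Cultured human mast cells at low density (1000-1500 per well) rested 1 h at 37° C, then stimulated with anti-IgE for 30 min at 37° C. Supernatant tryptase measured with fluorogenic substrate (30 min, room temperature); LTC4 quantified by ELISA on diluted supernatant.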

[4] = system: bone marrow derived mast cells (BMMC); assay: BMMC high cell density IgE activation: degranulation (hexosiminidase, histamine), leukotriene (LTC4) and cytokine (TNFalpha, IL-6) assays; assay type: cell-based; settings: Mus musculus, anti-IgE activation, hexosaminidase release, read-out: BMMC anti-IgE hexos IC50
[5] = system: basophils in whole human peripheral blood; assay: Basophil IgE activation: histamine release assay; assay type: cell-based; settings: Homo sapiens, anti-IgE activation
Procedure: The basophil activation assay was carried out using whole human peripheral blood from donors allergic to dust mites with the majority of the red blood cells removed by dextran sedimentation. Human peripheral blood was mixed 1:1 with 3% dextran T500 and RBCs were allowed to settle for 20-25 min. The upper fraction was diluted with 3 volumes of D-PBS and cells were spun down for 10 min at 1500 rpm, RT. Supernatant was aspirated and cells were washed in an equal volume MT-buffer. Finally, cells were resuspended in MT-buffer containing 0.5% DMSO in the original blood volume. 80 uL cells were mixed with 20 uL compound in the presence of 0.5% DMSO, in triplicate, in a V-bottom 96-well tissue culture plate. A dose range of 8 compound concentrations was tested resulting in a 10-point dose response curve including maximum (stimulated) and minimum (unstimulated) response. […] The cells were stimulated for 30 minutes at 37° C., 5% CO2. The plate was spun for 10 min at 1500 rpm at room temperature and 80 uL the supernatant was harvested for histamine content analysis using the histamine ELISA kit supplied by Immunotech. The ELISA was performed according to supplier's instructions.

[6] = system: cultured human mast cells (CHMC); assay: CHMC low cell density ionomycin activation: tryptase assay; assay type: cell-based; settings: Homo sapiens, Mast cell, Low Density CHMC, ionomycin activation
[7] = system: basophils in whole human peripheral blood; assay: Basophil ionomycin activation: histamine release assay; assay type: cell-based
Procedure: Assays for ionomycin-induced basophil cell degranulation were carried out as described for the Basophil IgE or Dustmite Activation Assay (Section 6.4.6, supra), with the exception that following incubation with compound, cells were stimulated with 20 μl of 2 μM ionomycin.

[8] = system: Jurkat cells; assay: Jurkat (T-cell) toxicity, light scatter; assay type: cell-based; settings: Homo sapiens, 18-24 hr, flow cytometric light scatter, read-out: Toxicity Jurkat Light Scat.
Procedure: Dilute Jurkat cells to 2×10^5 cells/ml in complete RPMI (10% heat-inactivated fetal bovine serum) media and incubate at 37° C., 5% CO2 for 18 hours. Add 65 ul cells at 7.7×10^5 cells/ml to a 96-well V-bottom plate (TC-treated, Costar) containing 65 ul 2× compound (final vehicle concentration is 0.5% DMSO, 1.5% MeOH). Mix, incubate plates for 18-24 hr at 37° C., 5% CO2. Toxicity was assessed by flow cytometric analysis of cellular light scatter

[9] = system: B-cell line BJAB; assay: BJAB (B-cell) toxicity, light scatter; assay type: cell-based; settings: Homo sapiens; BJAB B-cells, flow cytometric light scatter; read-out: Toxicity BJAB Light Scat.
Procedure: The B-cell line BJAB was cultured in log phase in RPMI1640+10% heat-inactivated fetal bovine serum, lx L-glutamine, lx penicillin, lx […] and 1× beta-mercaptoethanol at 37° C., 5% CO2. First, BJABs were harvested, spun and resuspended in culture medium to a concentration of 7.7×10^5 cells/mL. 65 uL cells were mixed with 65 uL compound, in duplicate and in the presence of 0.1% DMSO in a V-bottomed 96-well tissue culture plate. Cells were incubated with compound at various dilutions at 37° C., 5% CO2. Toxicity was assessed by flow cytometric analysis of cellular light scatter.

[10] = system: IgE-induced degranulation of tissue mast cells; assay: Mouse model of passive cutaneous anaphylaxis (PCA); assay type: in vivo; settings: for inhibition of the PCA response: oral route in a PEG-based formulation, data not shown
Procedure: This model provides a direct measure of IgE-induced degranulation of tissue mast cells. In this model, IgE primed animals are exposed to an allergen challenge, and the change in permeability of dermal vasculature that results from histamine release from mast cells is measured by change in the amount of dye leakage into surrounding tissue. Inhibition of mediator release by compounds that modulate mast cell degranulation is easily measured by extracting the dye from the tissue.
In the PCA assay mice are passively sensitized by intradermal injection with anti-dinitrophenol (DNP) IgE antibodies (Day −1). At predetermined times animals are treated with the test agent (Day 0). The modulatory effect of the agent on cutaneous mast cell degranulation is measured following intravenous injection of DNP conjugated to human serum albumin (HSA-DNP), together with Evans blue dye. The resulting cross-linking of the IgE receptor and subsequent mast cell degranulation-induced increase in vascular permeability is determined by measuring the amount of dye extravasation into the tissue. Dye is extracted from the tissue by formamide, and the absorbance of this extract is read at 620 nm.

[11] = LTC4 readout, read-out: CHMC anti-IgE LTC4
[12] = hexosaminidase readout, read-out: CHMC anti-IgE Hexos.
[13] = hexosaminidase readout, read-out: CHMC Ionomycin Hexos.

CNC(=O)COc1cccc(Nc2ncc(F)c(Nc3ccc(OC(F)(F)F)c(Cl)c3)n2)c1 [Compound R920410, N4-(3-Chloro-4-trifluoromethoxyphenyl)-5-fluoro-N2-[3-(N-methylamino)carbonylmethyleneoxyphenyl]-2,4-pyrimidinediamine]
inhibition of FcγRI-mediated degranulation [1]: inhibit FcγRI-mediated degranulation

CNC(=O)COc1cccc(Nc2ncc(F)c(Nc3ccc4c(c3)NC(=O)C(F)(F)O4)n2)c1 [Compound R921303, N4-[(2,2-Difluoro-4H-benzo[1,4]oxazin-3-one)-6-yl]-5-fluoro-N2-[3-(methylaminocarbonylmethyleneoxy)phenyl]-2,4-pyrimidinediamine]
inhibition of FcγRI-mediated degranulation [1]: inhibit FcγRI-mediated degranulation

CCOc1ccc(Nc2nc(Nc3ccc(OC)c(OC)c3)ncc2F)cc1 [Compound R926108, N2-(3,4-Dimethoxyphenyl)-N4-(4-ethoxyphenyl)-5-fluoro-2,4-pyrimidinediamine]
IC50 [2]: > 10000 nM | IC50 [3, 11]: 760 nM | IC50 [3, 12]: 787 nM | IC50 [4]: 900 nM | IC50 [5]: 950 nM | IC50 [6, 13]: 6400 nM | IC50 ([7]; Homo sapiens): > 10000 nM | IC50 [8]: > 10000 nM | IC50 [9]: > 10000 nM

COc1ccc(Nc2ncc(F)c(Nc3ccc(OC)c(OC)c3)n2)cc1OC [Compound R926110, N2,N4-Bis(3,4-dimethoxyphenyl)-5-fluoro-2,4-pyrimidinediamine]
IC50 [2]: 4500 nM | IC50 [3, 11]: 1420 nM | IC50 [3, 12]: 1200 nM | IC50 ([3]; tryptase readout, read-out: CHMC anti-IgE Tryptase): 1070 nM | IC50 [4]: 1000 nM | IC50 [5]: 300 nM | IC50 [6, 13]: > 10000 nM | IC50 ([6]; tryptase readout, read-out: CHMC Ionomycin Tryptase): > 10000 nM | IC50 ([7]; Homo sapiens): > 10000 nM | IC50 [8]: > 10000 nM | IC50 [9]: > 10000 nM

Oc1cccc(Nc2ncc(F)c(Nc3ccc4c(c3)OCCO4)n2)c1 [Compound R926210, N4-(3,4-Ethylenedioxyphenyl)-5-fluoro-N2-(3-hydroxyphenyl)-2,4-pyrimidinediamine]
IC50 [2]: > 10000 nM | IC50 [3, 11]: 800 nM | IC50 [4]: 600 nM | IC50 [5]: 370 nM | IC50 ([7]; Homo sapiens): > 10000 nM | IC50 [8]: > 10000 nM | IC50 [9]: > 10000 nM

CNC(=O)COc1cccc(Nc2ncc(F)c(Nc3ccc4c(c3)OCCO4)n2)c1 [Compound R926495, N4-(3,4-Ethylenedioxyphenyl)-5-fluoro-N2-[3-(N-methylamino)carbonylmethyleneoxyphenyl]-2,4-pyrimidinediamine]
IC50 [7]: > 10000 nM | inhibition of the PCA response [10]: able to inhibit the PCA response

CNC(=O)COc1cccc(Nc2ncc(F)c(Nc3cccc(O)c3)n2)c1 [Compound R926508, 5-Fluoro-N4-(3-hydroxyphenyl)-N2-[3-(N-methylamino)carbonylmethyleneoxyphenyl]-2,4-pyrimidinediamine]
IC50 [7]: > 10000 nM | inhibition of the PCA response [10]: able to inhibit the PCA response

CNC(=O)COc1cccc(Nc2ncc(F)c(Nc3ccc4cc[nH]c4c3)n2)c1 [Compound R926745, 5-Fluoro-N4-[(1H)-indol-6-yl]-N2-[3-(N-methylamino)carbonylmethyleneoxyphenyl]-2,4-pyrimidinediamine]
inhibition of the PCA response [10]: able to inhibit the PCA response

Cc1cc(Nc2ncc(F)c(Nc3ccc4c(c3)NC(=O)C(F)(F)O4)n2)cc(Cl)c1O [Compound R926971]
inhibition of FcγRI-mediated degranulation [1]: inhibit FcγRI-mediated degranulation

CNC(=O)COc1cccc(Nc2ncc(F)c(Nc3ccc4c(n3)NC(=O)C(C)(C)O4)n2)c1 [Compound R940347, N4-[(2,2-Dimethyl-4H-5-pyrido[1,4]oxazin-3-one)-6-yl]-5-fluoro-N2-[3-(methylaminocarbonylmethyleneoxy)phenyl]-2,4-pyrimidinediamine]
inhibition of FcγRI-mediated degranulation [1]: inhibit FcγRI-mediated degranulation

O=C1Nc2cc(Nc3ncc(F)c(Nc4ccc5c(c4)NC(=O)C(F)(F)O5)n3)ccc2OC1(F)F [Compound R940352, N2,N4-[(2,2-Difluoro-4H-benzo[1,4]oxazin-3-one)-6-yl]-5-fluoro-2,4-pyrimidinediamine]
inhibition of FcγRI-mediated degranulation [1]: inhibit FcγRI-mediated degranulation

CN(C)CCOC(c1ccccc1)c1ccccc1 [diphenhydramine, reference compound]
inhibition of the PCA response / FcεR-mediated vascular leakage (in words) ([10]; mouse, in vivo): inhibit the PCA response
